Test results taken from US20250145642A1, “BICYCLIC HETEROARENES AND METHODS OF THEIR USE” (Kineta, Inc., priority 2021, published 2025).
pIC50: −log10 of the molar value. Like-named read-outs stand apart in the source and are kept apart here.

Target: full-length human PIKFYVE (N-terminal GST-fusion) (Homo sapiens (Human), UniProt Q9Y2I7, L932S/Q1183K/Q995L/S1033A/S696N/T998S)
Assay: PIKfyve biochemical assay (ADP-Glo Kinase assay, Carna Biosciences)
Excerpt: (§1) PIKfyve Biochemical Assay. The biochemical PIKfyve inhibition assays were run by Carna Biosciences according to proprietary methodology based on the Promega ADP-Glo™ Kinase assay. A full-length human PIKFYVE [1-2098(end) amino acids and S696N, L932S, Q995L, T998S, S1033A and Q1183K of the protein having the sequence set forth in NCBI Reference Sequence No. NP_055855.2] was expressed as N-terminal GST-fusion protein (265 kDa) using baculovirus expression system. GST-PIKFYVE was purified by using glutathione sepharose chromatography and used in an ADP-Glo™ Kinase assay (Promega). Reactions were set up by adding the test compound solution, substrate solution, ATP solution and kinase solution, each at 4× final concentrations. Reactions were prepared with assay buffer (50 mM MOPS, 1 mM DTT, pH7.2), mixed, and incubated in black 384 well polystyrene plates for 1 hour at room temperature. ADP-Glo™ reagent was then added for 40 minutes, followed by kinase detection reagent for an additional 40 minutes. The kinase activity was evaluated by detecting relative light units on a luminescence plate reader. Samples were run in duplicate from 10 μM to 3 nM. […] IC50 values were calculated from concentration vs % inhibition curves by fitting to a four-parameter logistic curve.
as §1, with “The” for “PIKfyve Biochemical Assay. The”, “accession number” for “the protein having the sequence set forth in NCBI Reference Sequence No.”, “curve. […]” for “curve.”

[1] = ADP-Glo, full-length human GST-PIKFYVE, 10 μM to 3 nM, read-out: hPIKfyve IC50

Chain of full-length human PIKFYVE (N-terminal GST-fusion) (Q9Y2I7 whole entry S696N/L932S/Q995L/T998S/S1033A/Q1183K, the tested form may be a part): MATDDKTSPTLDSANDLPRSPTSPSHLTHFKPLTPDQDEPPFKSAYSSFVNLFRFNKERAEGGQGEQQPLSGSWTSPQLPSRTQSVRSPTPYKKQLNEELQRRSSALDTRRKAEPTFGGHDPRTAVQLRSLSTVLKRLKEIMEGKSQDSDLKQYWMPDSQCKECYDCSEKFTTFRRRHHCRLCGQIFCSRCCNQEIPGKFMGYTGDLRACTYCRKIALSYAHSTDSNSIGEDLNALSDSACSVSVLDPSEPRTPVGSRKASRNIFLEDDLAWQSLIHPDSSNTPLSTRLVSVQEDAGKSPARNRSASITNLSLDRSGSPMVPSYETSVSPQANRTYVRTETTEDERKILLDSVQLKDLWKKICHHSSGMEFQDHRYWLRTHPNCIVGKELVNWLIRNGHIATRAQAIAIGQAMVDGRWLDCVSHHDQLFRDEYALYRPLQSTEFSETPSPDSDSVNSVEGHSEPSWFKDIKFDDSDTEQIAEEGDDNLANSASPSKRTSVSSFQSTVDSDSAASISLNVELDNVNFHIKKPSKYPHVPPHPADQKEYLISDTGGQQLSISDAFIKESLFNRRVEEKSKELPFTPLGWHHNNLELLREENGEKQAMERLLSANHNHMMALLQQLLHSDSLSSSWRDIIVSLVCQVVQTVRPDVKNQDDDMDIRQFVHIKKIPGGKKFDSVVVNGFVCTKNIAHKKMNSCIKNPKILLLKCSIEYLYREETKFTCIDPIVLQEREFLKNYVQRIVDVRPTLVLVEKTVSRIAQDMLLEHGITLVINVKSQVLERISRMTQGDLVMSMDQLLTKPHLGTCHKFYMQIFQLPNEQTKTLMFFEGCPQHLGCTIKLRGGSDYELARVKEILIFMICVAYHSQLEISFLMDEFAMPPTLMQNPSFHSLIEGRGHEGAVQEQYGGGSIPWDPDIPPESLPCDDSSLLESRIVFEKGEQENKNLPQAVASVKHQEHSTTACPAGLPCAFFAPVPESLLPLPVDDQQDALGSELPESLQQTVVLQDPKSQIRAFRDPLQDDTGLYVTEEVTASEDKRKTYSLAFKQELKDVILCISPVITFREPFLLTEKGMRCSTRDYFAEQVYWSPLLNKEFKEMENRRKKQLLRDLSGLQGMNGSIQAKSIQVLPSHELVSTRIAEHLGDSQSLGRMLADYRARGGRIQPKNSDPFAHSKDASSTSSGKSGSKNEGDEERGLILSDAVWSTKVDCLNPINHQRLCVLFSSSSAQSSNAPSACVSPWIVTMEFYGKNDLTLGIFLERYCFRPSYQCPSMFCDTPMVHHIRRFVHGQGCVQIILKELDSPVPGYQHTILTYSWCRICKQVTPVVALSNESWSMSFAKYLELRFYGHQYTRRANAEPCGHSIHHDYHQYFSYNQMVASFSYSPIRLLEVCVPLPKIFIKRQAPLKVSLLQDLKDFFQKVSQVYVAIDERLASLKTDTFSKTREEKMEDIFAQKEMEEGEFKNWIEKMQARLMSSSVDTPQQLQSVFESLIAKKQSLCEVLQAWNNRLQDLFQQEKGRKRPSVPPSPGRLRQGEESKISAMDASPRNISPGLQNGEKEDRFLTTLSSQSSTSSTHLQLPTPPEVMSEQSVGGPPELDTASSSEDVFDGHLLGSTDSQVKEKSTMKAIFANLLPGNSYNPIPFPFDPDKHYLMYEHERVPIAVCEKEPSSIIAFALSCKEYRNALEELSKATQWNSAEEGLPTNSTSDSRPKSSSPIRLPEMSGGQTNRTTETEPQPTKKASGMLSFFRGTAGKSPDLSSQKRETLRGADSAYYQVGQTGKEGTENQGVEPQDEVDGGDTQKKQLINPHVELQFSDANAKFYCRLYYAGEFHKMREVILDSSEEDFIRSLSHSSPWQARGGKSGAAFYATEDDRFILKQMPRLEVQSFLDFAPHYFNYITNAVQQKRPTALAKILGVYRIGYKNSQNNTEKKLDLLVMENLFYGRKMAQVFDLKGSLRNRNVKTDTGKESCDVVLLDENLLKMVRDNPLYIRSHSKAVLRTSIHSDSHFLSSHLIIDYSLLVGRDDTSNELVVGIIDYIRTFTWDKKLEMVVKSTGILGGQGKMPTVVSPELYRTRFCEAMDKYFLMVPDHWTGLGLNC

| Compound | pIC50 [1] | pIC50 (values plotted in FIG. 7, read-out: PIKFYVE Biochemistry (IC50)) |
| --- | --- | --- |
| c1ccc(N2CCc3c(OCc4cnccn4)nc(N4CCOCC4)nc32)cc1 [Compound 15, 4-(7-phenyl-4-(pyrazin-2-ylmethoxy)-6,7-dihydro-5H-pyrrolo[2,3-d]pyrimidin-2-yl)morpholine] | 7.00 to 8.00 |  |
| c1ccc(N2CCc3c(OC4CCOC4)nc(N4CCOCC4)nc32)cc1 (stereo not drawn) [Compound 22, 4-(7-phenyl-4-((tetrahydrofuran-3-yl)oxy)-6,7-dihydro-5H-pyrrolo[2,3-d]pyrimidin-2-yl)morpholine] | 6.00 to 7.00 |  |
| c1ccc(-c2nc(-c3cc(N4CCOCC4)nc(OCc4ccncc4)n3)no2)cc1 |  | < 5.00 |
| c1ccc(N2CCc3c(C4CCNC4)nc(N4CCOCC4)nc32)cc1 (stereo not drawn) [Compound 116, 4-(7-phenyl-4-(pyrrolidin-3-yl)-6,7-dihydro-5H-pyrrolo[2,3-d]pyrimidin-2-yl)morpholine] | 7.00 to 8.00 |  |
| CC(C)(O)Cc1nc(N2CCOCC2)nc2c1CCN2c1ccccc1 [Compound 46, 2-methyl-1-(2-morpholino-7-phenyl-6,7-dihydro-5H-pyrrolo[2,3-d]pyrimidin-4-yl)propan-2-ol] | 7.00 to 8.00 |  |
| c1cncc(COc2nc(N3CCOCC3)nc3c2CCN3C2CCNCC2)c1 [Compound 6, 4-(7-(piperidin-4-yl)-4-(pyridin-3-ylmethoxy)-6,7-dihydro-5H-pyrrolo[2,3-d]pyrimidin-2-yl)morpholine] | < 5.00 |  |
| c1cc(-c2c[nH]c3c(OCc4cccnn4)nc(N4CCOCC4)nc23)cc(-n2cccn2)c1 [Compound 150, 4-(7-(3-(1H-pyrazol-1-yl)phenyl)-4-(pyridazin-3-ylmethoxy)-6H-pyrrolo[3,2-d]pyrimidin-2-yl)morpholine] | 7.00 to 8.00 |  |
| CN1CCC(c2nc(N3CCOCC3)nc3c2CCN3c2ccccc2)CC1 [Compound 112, 4-(4-(1-methylpiperidin-4-yl)-7-phenyl-6,7-dihydro-5H-pyrrolo[2,3-d]pyrimidin-2-yl)morpholine] | 7.00 to 8.00 |  |
| OCC(O)COc1nc(N2CCOCC2)nc2c1CCN2c1ccccc1 (stereo not drawn) [Compound 43, 3-((2-morpholino-7-phenyl-6,7-dihydro-6H-pyrrolo[2,3-d]pyrimidin-4-yl)oxy)propane-1,2-diol] | 6.00 to 7.00 |  |
| c1cncc(N2CCc3c(COC4CCNC4)nc(N4CCOCC4)nc32)c1 (stereo not drawn) [Compound 64, 4-(7-(pyridin-3-yl)-4-((pyrrolidin-3-yloxy)methyl)-6,7-dihydro-5H-pyrrolo[2,3-d]pyrimidin-2-yl)morpholine] | 5.00 to 6.00 |  |
| Cn1nccc1-c1c[nH]c2c(-c3ccncc3)nc(N3CCOCC3)nc12 [Compound 141, 4-(7-(1-methyl-1H-pyrazol-5-yl)-4-(pyridin-4-yl)-5H-pyrrolo[3,2-d]pyrimidin-2-yl)morpholine] | 7.00 to 8.00 |  |
| c1ccc(-c2c[nH]c3c(-c4ccncc4)nc(N4CCOCC4)nc23)nc1 [Compound 136, 4-(7-(pyridin-2-yl)-4-(pyridin-4-yl)-6H-pyrrolo[3,2-d]pyrimidin-2-yl)morpholine] | 7.00 to 8.00 |  |
| 4-(7-(3-fluorophenyl)-4-(pyridin-3-ylmethoxy)-6,7-dihydro-5H-pyrrolo[2,3-d]pyrimidin-2-yl)morpholine [Compound 3] | 6.00 to 7.00 |  |
| CC(C)(C)OC(=O)N1CCC(c2nc(N3CCOCC3)nc3c2CCN3c2ccccc2)CC1 [Compound 110, tert-butyl 4-(2-morpholino-7-phenyl-6,7-dihydro-5H-pyrrolo[2,3-d]pyrimidin-4-yl)piperidine-1-carboxylate] | 7.00 to 8.00 |  |
| CC(C)(C)OC(=O)N1CC(c2nc(N3CCOCC3)nc3c2CCN3c2ccccc2)C1 [Compound 113, tert-butyl 3-(2-morpholino-7-phenyl-6,7-dihydro-5H-pyrrolo[2,3-d]pyrimidin-4-yl)azetidine-1-carboxylate] | > 8.00 |  |
| COc1cccc(C#Cc2nc(N3CCOCC3)nc3c2CCN3c2cccnc2)c1 [Compound 85, 4-(4-((3-methoxyphenyl)ethynyl)-7-(pyridin-3-yl)-6,7-dihydro-5H-pyrrolo[2,3-d]pyrimidin-2-yl)morpholine] | 6.00 to 7.00 |  |
| c1ccc(-n2cc(N3CCc4c(Oc5cccnc5)nc(N5CCOCC5)nc43)cn2)cc1 [Compound 71, 4-(7-(1-phenyl-1H-pyrazol-4-yl)-4-(pyridin-3-yloxy)-6,7-dihydro-5H-pyrrolo[2,3-d]pyrimidin-2-yl)morpholine] | 7.00 to 8.00 |  |

| Compound | pIC50 [1] | pIC50 (values plotted in FIG. 7, read-out: PIKFYVE Biochemistry (IC50)) |
| --- | --- | --- |
| c1ccc(N2CCc3c(OCC4CCCO4)nc(N4CCOCC4)nc32)cc1 (stereo not drawn) [Compound 29, 4-(7-phenyl-4-((tetrahydrofuran-2-yl)methoxy)-6,7-dihydro-5H-pyrrolo[2,3-d]pyrimidin-2-yl)morpholine] | 6.00 to 7.00 |  |
| N#Cc1cccc(N2CCc3c(OCc4cccnc4)nc(N4CCOCC4)nc32)c1 [Compound 4, 3-(2-morpholino-4-(pyridin-3-ylmethoxy)-5H-pyrrolo[2,3-d]pyrimidin-7(6H)-yl)benzonitrile] | 6.00 to 7.00 |  |
| c1ccc(-c2cncc(N3CCc4c(Oc5cccnc5)nc(N5CCOCC5)nc43)c2)cc1 [Compound 67, 4-(7-(5-phenylpyridin-3-yl)-4-(pyridin-3-yloxy)-6,7-dihydro-5H-pyrrolo[2,3-d]pyrimidin-2-yl)morpholine] | 7.00 to 8.00 |  |
| N#Cc1ccc(N2CCc3c(OCc4cccnc4)nc(N4CCOCC4)nc32)cc1 [Compound 7, 4-(2-morpholino-4-(pyridin-3-ylmethoxy)-5H-pyrrolo[2,3-d]pyrimidin-7(6H)-yl)benzonitrile] | 7.00 to 8.00 |  |
| Cc1nc(N2CCOCC2)nc2c1CCN2c1ccccc1 [Compound 45, 4-(4-methyl-7-phenyl-6,7-dihydro-5H-pyrrolo[2,3-d]pyrimidin-2-yl)morpholine] | 6.00 to 7.00 |  |
| CN1CCn2ncc(-c3c[nH]c4c(-c5ccncc5)nc(N5CCOCC5)nc34)c2C1 [Compound 146, 4-(7-(5-methyl-4,5,6,7-tetrahydropyrazolo[1,5-a]pyrazin-3-yl)-4-(pyridin-4-yl)-5H-pyrrolo[3,2-d]pyrimidin-2-yl)morpholine] | 6.00 to 7.00 |  |
| c1ccc(N2CCc3c(OCCc4ccccn4)nc(N4CCOCC4)nc32)cc1 [Compound 44, 4-(7-phenyl-4-(2-(pyridin-2-yl)ethoxy)-6,7-dihydro-5H-pyrrolo[2,3-d]pyrimidin-2-yl)morpholine] | 7.00 to 8.00 |  |
| CCN1CCCC(COc2nc(N3CCOCC3)nc3c2CCN3c2cccnc2)C1 (stereo not drawn) [Compound 10, 4-(4-((1-ethylpiperidin-3-yl)methoxy)-7-(pyridin-3-yl)-6,7-dihydro-5H-pyrrolo[2,3-d]pyrimidin-2-yl)morpholine] | 6.00 to 7.00 |  |
| c1ccc(N2CCc3c(Nc4cccnc4)nc(N4CCOCC4)nc32)cc1 [Compound 77] | 7.00 to 8.00 |  |
| c1cncc(N2CCc3c(C4CCOC4)nc(N4CCOCC4)nc32)c1 (stereo not drawn) [Compound 89, 4-(7-(pyridin-3-yl)-4-(tetrahydrofuran-3-yl)-6,7-dihydro-6H-pyrrolo[2,3-d]pyrimidin-2-yl)morpholine] | 6.00 to 7.00 |  |
| c1ccc(-n2ncc(N3CCc4c(Oc5cccnc5)nc(N5CCOCC5)nc43)n2)cc1 [Compound 68, 4-(7-(2-phenyl-2H-1,2,3-triazol-4-yl)-4-(pyridin-3-yloxy)-6,7-dihydro-5H-pyrrolo[2,3-d]pyrimidin-2-yl)morpholine] | 5.00 to 6.00 |  |
| O=C(c1ccccc1)N1CCc2c(Oc3cccnc3)nc(N3CCOCC3)nc21 [Compound 72, (2-morpholino-4-(pyridin-3-yloxy)-6H-pyrrolo[2,3-d]pyrimidin-7(6H)-yl)(phenyl)methanone] | 5.00 to 6.00 |  |
| c1cncc(N2CCc3c(C4CCNCC4)nc(N4CCOCC4)nc32)c1 [Compound 108, 4-(4-(piperidin-4-yl)-7-(pyridin-3-yl)-6,7-dihydro-5H-pyrrolo[2,3-d]pyrimidin-2-yl)morpholine] | 5.00 to 6.00 |  |
| c1ccc(N2CCc3c(C4CCNCC4)nc(N4CCOCC4)nc32)cc1 [Compound 111, 4-(7-phenyl-4-(piperidin-4-yl)-6,7-dihydro-5H-pyrrolo[2,3-d]pyrimidin-2-yl)morpholine] | 6.00 to 7.00 |  |
| Cc1cccc(N2C(=O)Cc3c(OCc4cccnc4)nc(N4CCOCC4)nc32)c1 [Compound 129, 2-morpholino-4-(pyridin-3-ylmethoxy)-7-m-tolyl-5H-pyrrolo[2,3-d]pyrimidin-6(7H)-one] | 6.00 to 7.00 |  |
| c1ccc(Oc2nc(N3CCOCC3)nc3c2CCN3c2cccnc2)nc1 [Compound 58] | 6.00 to 7.00 |  |
